This note sets out measurements from patent publication US20240025906A1 (NEURON23, INC., priority 2022, published 2024).

For one assay, the target named is T1, TYK2 JH2 (Homo sapiens, UniProt P29597).
T1 construct: purchased DiscoverX (KINOMEscan KdELECT service); host or cells: E. coli BL21-derived (T7 phage display) or HEK-293
The experiment in a line: TYK2 JH2 binding assay (KINOMEscan KdELECT competitive binding). Particulars: TYK2 JH2 domain, read-out: Biochemical TYK2_DiscoverX_JH2_BND_Kd. Summed up:
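The assay measures displacement of DNA- or phage-tagged TYK2 pseudokinase domain from an affinity resin; compound binding lowers the amount captured, read by qPCR. Incubation lasts 1 h at room temperature.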

Assay [1] deals with JAK1/TYK2 pSTAT5 (Tyr694/699) in THP-1 cell line. The assay can be described thus: IFNa-stimulated JAK1/TYK2 pSTAT5 (Tyr694/699) inhibition cellular assay, AlphaLISA. Particulars: Homo sapiens; THP-1 cells, IFNa-stimulated, AlphaLISA (Assay B); read-out: Cellular_THP1_IFNa-pSTATS_TYK2. It counts as cell-based. A digest of the protocol: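 The readout is AlphaLISA signal at 615 nm for phospho-STAT5 in THP-1 lysates after IFNa stimulation (added at 100 ng/mL, 30 min, 37 °C). Cells had compound for 1 h beforehand across eight 6-fold concentrations up to 10000 nM final. IC50s are 4PL fits with bottom and Hill slope constrained.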
For orientation: Bead proximity is the source of the signal in Alpha formats.

[2] abbreviates: DiscoverX KINOMEscan KdELECT (Assay A).

Where a name gives a salt, the structure may show the parent alone. Read-outs that look alike come from different tables or passages of the source. Where only a bound is given, the exact number is not on record here.

T1 sequence (P29597 589-875 limits assumed): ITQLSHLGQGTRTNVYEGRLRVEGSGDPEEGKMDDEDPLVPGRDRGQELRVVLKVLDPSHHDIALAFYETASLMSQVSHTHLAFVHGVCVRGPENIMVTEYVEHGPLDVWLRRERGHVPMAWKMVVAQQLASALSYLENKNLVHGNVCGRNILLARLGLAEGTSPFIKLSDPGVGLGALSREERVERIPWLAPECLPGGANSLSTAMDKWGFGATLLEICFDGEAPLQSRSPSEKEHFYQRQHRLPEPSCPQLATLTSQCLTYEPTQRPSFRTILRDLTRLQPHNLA

In the case of `CNc1ncc(-c2nc3ccc(N4CCOCC4)cn3n2)c2cc(NC(=O)[C@@H](C)F)ncc12` (single isomer, unassigned) [Example 532], the Kd at TYK2 JH2 (setting [2]) is not above 100 nM. Besides, the IC50 in assay [1] was not above 500 nM.

Take `CNc1ncc(-c2nc3ccc(N4CCOCC4)cn3n2)c2cc(NC(=O)[C@H](C)F)ncc12` (single isomer, unassigned) [Example 533]: the Kd on TYK2 JH2 (setting [2]) was not above 100 nM. For the same compound, in assay [1], the IC50 is more than 500 nM.

As for `CNc1ncc(-c2nc3ccc(N4CCOCC4)cn3n2)c2cc(NC(=O)[C@H]3C[C@H]3C(F)F)ncc12` (single isomer, unassigned) [Example 534], the Kd at TYK2 JH2 (setting [2]) is not above 100 nM. The IC50 in assay [1] is not above 500 nM.

In the case of `CNc1ncc(-c2nc3ccc(N4CCOCC4)cn3n2)c2cc(NC(=O)[C@@H]3C[C@@H]3C(F)F)ncc12` (single isomer, unassigned) [Example 535], on TYK2 JH2 (setting [2]), the Kd is not above 100 nM. Also, in assay [1], the IC50 was not above 500 nM.

For the compound `CNc1ncc(-c2nc3ccc(N4CCO[C@@H](C)C4)cn3n2)c2cc(NC(=O)[C@H]3C[C@H]3C(F)(F)F)ncc12` (single isomer, unassigned) [Example 541], the Kd at TYK2 JH2 (setting [2]) was not above 100 nM. Further, the IC50 in assay [1] is not above 500 nM.

With `CNc1ncc(-c2nc3ccc(N4CCO[C@@H](C)C4)cn3n2)c2cc(NC(=O)[C@@H]3C[C@@H]3C(F)(F)F)ncc12` (single isomer, unassigned) [Example 542], the Kd on TYK2 JH2 (setting [2]) is not above 100 nM. The IC50 in assay [1] was not above 500 nM.

For the compound `[2H]C([2H])([2H])Nc1ncc(-c2nc3ccc(N4CCO[C@@H](C)C4)cn3n2)c2cc(NC(=O)[C@H]3C[C@H]3C(F)F)ncc12` (single isomer, unassigned) [Example 574], on TYK2 JH2 (setting [2]), the Kd is not above 100 nM. Also, in assay [1], the IC50 was not above 500 nM.

Take `CC[C@H]1C[C@@H]1C(=O)Nc1cc2c(-c3nc4ccc(N5CCOCC5)cn4n3)cnc(NC)c2cn1` (single isomer, unassigned) [Example 585]: the Kd at TYK2 JH2 (setting [2]) was not above 100 nM. In assay [1], the IC50 was not above 500 nM.

`CC[C@@H]1C[C@H]1C(=O)Nc1cc2c(-c3nc4ccc(N5CCOCC5)cn4n3)cnc(NC)c2cn1` (single isomer, unassigned) [Example 586]: the Kd on TYK2 JH2 (setting [2]) was not above 100 nM. Besides, the IC50 in assay [1] is not above 500 nM.

For the compound `CNc1ncc(-c2nc3ccc(N4CCOCC4)cn3n2)c2cc(NC(=O)[C@@H]3CC34CC4)ncc12` (single isomer, unassigned) [Example 587, formate], the Kd at TYK2 JH2 (setting [2]) was not above 100 nM. In addition, the IC50 in assay [1] was not above 500 nM.

In the case of `CNc1ncc(-c2nc3ccc(N4CCOCC4)cn3n2)c2cc(NC(=O)[C@H]3CC34CC4)ncc12` (single isomer, unassigned) [Example 588, formate], at TYK2 JH2 (setting [2]), the Kd was not above 100 nM. Further, the IC50 in assay [1] is not above 500 nM.

Regarding `CNc1ncc(C#Cc2ccc3c(c2)OC[C@H](COC)O3)c2cc(NC(=O)C3CC3)ncc12` (single isomer, unassigned) [Example 698], the Kd on TYK2 JH2 (KINOMEscan KdELECT (Assay A)) is not above 100 nM. The IC50 in assay [1] is not above 500 nM.

With `CNc1ncc(C#Cc2ccc3c(c2)OC[C@@H](COC)O3)c2cc(NC(=O)C3CC3)ncc12` (single isomer, unassigned) [Example 699], at TYK2 JH2 (KINOMEscan KdELECT (Assay A)), the Kd is not above 100 nM. The IC50 in assay [1] is not above 500 nM.

Regarding `CNc1ncc(C#Cc2ccc(OC)cn2)c2cc(NC(=O)[C@H]3C[C@H]3C(F)F)ncc12` (single isomer, unassigned) [Example 745], the Kd on TYK2 JH2 (KINOMEscan KdELECT (Assay A)) is not above 100 nM. In addition, the IC50 in assay [1] is not above 500 nM.

Turning to `CNc1ncc(C#Cc2ccc(OC)cn2)c2cc(NC(=O)[C@@H]3C[C@@H]3C(F)(F)F)ncc12` (single isomer, unassigned) [Example 746], the Kd at TYK2 JH2 (KINOMEscan KdELECT (Assay A)) is not above 100 nM. Besides, the IC50 in assay [1] is not above 500 nM.

Turning to `CNc1ncc(C#Cc2ccc(OC)cn2)c2cc(NC(=O)[C@H]3C[C@H]3C(F)(F)F)ncc12` (single isomer, unassigned) [Example 747], the Kd on TYK2 JH2 (KINOMEscan KdELECT (Assay A)) is not above 100 nM. In addition, the IC50 in assay [1] is not above 500 nM.

For the compound `CNc1ncc(C#Cc2cc3ccccn3n2)c2cc(NC(=O)[C@@H]3C[C@@H]3C(F)F)ncc12` (single isomer, unassigned) [Example 754], the Kd on TYK2 JH2 (KINOMEscan KdELECT (Assay A)) was not above 100 nM. The IC50 in assay [1] is not above 500 nM.

Turning to `CNc1ncc(C#Cc2cc3ccccn3n2)c2cc(NC(=O)[C@H]3C[C@H]3C(F)F)ncc12` (single isomer, unassigned) [Example 755], the Kd on TYK2 JH2 (KINOMEscan KdELECT (Assay A)) was not above 100 nM. For the same compound, the IC50 in assay [1] was not above 500 nM.

Turning to `CNc1ncc(C#Cc2ccc(OCC(C)(C)O)cc2)c2cc(NC(=O)[C@@H]3C[C@@H]3C(F)F)ncc12` (single isomer, unassigned) [Example 756], the Kd at TYK2 JH2 (KINOMEscan KdELECT (Assay A)) was not above 100 nM. In addition, the IC50 in assay [1] is not above 500 nM.

For `CNc1ncc(C#Cc2ccc(OCC(C)(C)O)cc2)c2cc(NC(=O)[C@H]3C[C@H]3C(F)F)ncc12` (single isomer, unassigned) [Example 757], the Kd at TYK2 JH2 (KINOMEscan KdELECT (Assay A)) was not above 100 nM. Moreover, the IC50 in assay [1] is not above 500 nM.

Turning to `CNc1ncc(C#Cc2ccc(OC3CN(C(C)=O)C3)cc2)c2cc(NC(=O)[C@H]3C[C@H]3C(F)F)ncc12` (single isomer, unassigned) [Example 776], on TYK2 JH2 (KINOMEscan KdELECT (Assay A)), the Kd is not above 100 nM. Further, in assay [1], the IC50 was not above 500 nM.

For `CNc1ncc(C#Cc2ccc(OC3CN(C(C)=O)C3)cc2)c2cc(NC(=O)[C@@H]3C[C@@H]3C(F)F)ncc12` (single isomer, unassigned) [Example 777], the Kd on TYK2 JH2 (KINOMEscan KdELECT (Assay A)) is not above 100 nM. Further, the IC50 in assay [1] is not above 500 nM.

As for `CNc1ncc(/C=C/c2ccc3c(c2)OC[C@H](COC)O3)c2cc(NC(=O)C3CC3)ncc12` (single isomer, unassigned) [Example 790], on TYK2 JH2 (KINOMEscan KdELECT (Assay A)), the Kd is not above 100 nM. The IC50 in assay [1] is not above 500 nM.

Turning to `CNc1ncc(/C=C/c2ccc3c(c2)OC[C@@H](COC)O3)c2cc(NC(=O)C3CC3)ncc12` (single isomer, unassigned) [Example 791], the Kd at TYK2 JH2 (KINOMEscan KdELECT (Assay A)) is not above 100 nM. The IC50 in assay [1] is not above 500 nM.

With `CNc1ncc(C#Cc2ccc(OC)cn2)c2cc(NC(=O)[C@H]3C[C@H]3CF)ncc12` (single isomer, unassigned) [Example 822], at TYK2 JH2 (KINOMEscan KdELECT (Assay A)), the Kd is not above 100 nM. Also, in assay [1], the IC50 is not above 500 nM.

`CNc1ncc(C#Cc2ccc(OC)cn2)c2cc(NC(=O)[C@@H]3C[C@@H]3CF)ncc12` (single isomer, unassigned) [Example 823]: the Kd on TYK2 JH2 (KINOMEscan KdELECT (Assay A)) was not above 100 nM. In addition, the IC50 in assay [1] was not above 500 nM.

For the compound `CNc1ncc(-c2nc3cc(N4CCO[C@H](COC)C4)ccc3o2)c2cc(NC(=O)C3CC3)ncc12` (single isomer, unassigned) [Example 919], the Kd on TYK2 JH2 (KINOMEscan KdELECT (Assay A)) is not above 100 nM. For the same compound, the IC50 in assay [1] is not above 500 nM.

As for `CNc1ncc(-c2nc3cc(N4CCO[C@@H](COC)C4)ccc3o2)c2cc(NC(=O)C3CC3)ncc12` (single isomer, unassigned) [Example 920], the Kd on TYK2 JH2 (KINOMEscan KdELECT (Assay A)) is not above 100 nM. The IC50 in assay [1] is not above 500 nM.

As to `CNc1ncc(-c2nc3cc(N4CCO[C@@H](C(F)(F)F)C4)ccc3o2)c2cc(NC(=O)C3CC3)ncc12` (single isomer, unassigned) [Example 922], the Kd at TYK2 JH2 (KINOMEscan KdELECT (Assay A)) is not above 100 nM. Further, the IC50 in assay [1] was not above 500 nM.

For the compound `CNc1ncc(-c2nc3cc(N4CCO[C@H](C(F)(F)F)C4)ccc3o2)c2cc(NC(=O)C3CC3)ncc12` (single isomer, unassigned) [Example 923], at TYK2 JH2 (KINOMEscan KdELECT (Assay A)), the Kd was not above 100 nM. Moreover, the IC50 in assay [1] is not above 500 nM.

In the case of `CNc1ncc(-c2nc3cc(N4CCO[C@@H](C(C)(C)O)C4)ccc3o2)c2cc(NC(=O)C3CC3)ncc12` (single isomer, unassigned) [Example 925], the Kd on TYK2 JH2 (KINOMEscan KdELECT (Assay A)) was not above 100 nM. Also, the IC50 in assay [1] is not above 500 nM.

In the case of `CNc1ncc(-c2nc3cc(N4CCO[C@H](C(C)(C)O)C4)ccc3o2)c2cc(NC(=O)C3CC3)ncc12` (single isomer, unassigned) [Example 926], on TYK2 JH2 (KINOMEscan KdELECT (Assay A)), the Kd is not above 100 nM. Besides, the IC50 in assay [1] is not above 500 nM.

With `CNc1ncc(-c2nc3cc(N4CCO[C@H](C(F)F)C4)ccc3o2)c2cc(NC(=O)C3CC3)ncc12` (single isomer, unassigned) [Example 935], at TYK2 JH2 (KINOMEscan KdELECT (Assay A)), the Kd is not above 100 nM. Also, the IC50 in assay [1] is not above 500 nM.

On to `CNc1ncc(-c2nc3cc(N4CCO[C@@H](C(F)F)C4)ccc3o2)c2cc(NC(=O)C3CC3)ncc12` (single isomer, unassigned) [Example 936], for which the Kd at TYK2 JH2 (KINOMEscan KdELECT (Assay A)) is not above 100 nM. For the same compound, the IC50 in assay [1] is not above 500 nM.

Consider `CNc1ncc(-c2nc3cc(N4CC[C@@H](F)C4)ccc3o2)c2cc(NC(=O)C3CC3)ncc12` (single isomer, unassigned) [Example 944], for which the Kd on TYK2 JH2 (KINOMEscan KdELECT (Assay A)) is not above 100 nM. In addition, the IC50 in assay [1] was not above 500 nM.

Turning to `CNc1ncc(-c2nc3cc(N4CC[C@H](F)C4)ccc3o2)c2cc(NC(=O)C3CC3)ncc12` (single isomer, unassigned) [Example 945], the Kd on TYK2 JH2 (KINOMEscan KdELECT (Assay A)) was not above 100 nM. Also, the IC50 in assay [1] is not above 500 nM.

Take `CNc1ncc(-c2nc3cc(C4(C)CCCO4)ccc3o2)c2cc(NC(=O)C3CC3)ncc12` (single isomer, unassigned) [Example 949]: the Kd at TYK2 JH2 (KINOMEscan KdELECT (Assay A)) is not above 100 nM. In addition, the IC50 in assay [1] was not above 500 nM.

Consider `CNc1ncc(C#Cc2ccc3c(c2)CC[C@H](CO)O3)c2cc(NC(=O)C3CC3)ncc12` (single isomer, unassigned) [Example 982], for which the Kd on TYK2 JH2 (KINOMEscan KdELECT (Assay A)) is not above 100 nM. For the same compound, the IC50 in assay [1] was not above 500 nM.

With `CNc1ncc(C#Cc2ccc3c(c2)CC[C@@H](CO)O3)c2cc(NC(=O)C3CC3)ncc12` (single isomer, unassigned) [Example 983], the Kd on TYK2 JH2 (KINOMEscan KdELECT (Assay A)) is not above 100 nM. The IC50 in assay [1] is not above 500 nM.
